Measurements reported in patent publication US8680094B2, “1, 4-benzoxazine compounds and derivatives thereof as therapeutic drugs for the treatment of neurodegenerative conditions” (Board of Regents, The University of Texas System, priority 2008, dated 2014).
Values joined by “and” are separate entries in the source; they are usually repeats but may differ in a detail not shown here. Equal values may be shown once. “Also recorded” adds a separate entry of the source.

Legend:
[1] = test system: cerebellar granule neurons; experiment: LK-induced death of cultured cerebellar granule neurons, viability by DAPI staining; type: cell-based, rat; settings: for protection against LK-induced neuronal death (FIG. 1): 25 μM, phase contrast microscopy, DAPI-staining, TUNEL-staining; for neuroprotection against LK-induced neuronal death, in words: overall over 1, 5 and 25 μM
Experimental: Culturing and treatments of cerebellar granule neurons: Granule neuron cultures were obtained from dissociated cerebella of 6-7 day old Wistar rats as described previously (D'Mello et al., 1993). Cells were plated in Basal Eagle's Medium (BME) supplemented with 10% fetal calf serum (FCS), 25 mM KCl, 2 mM glutamine (Invitrogen), and 100 μg/ml gentamycin in poly-L-lysine coated 24-well dishes at a density 1×10^6 cells/well. Cytosine arabinofuranoside (10 μM) was added to the culture medium 18-22 h after plating to prevent replication of nonneuronal cells. Previous immunocytochemical analyses by our lab and other investigators have shown that these cultures have high purity containing over 95% granule neurons (Thangnipon et al., 2003; Kingsbury et al., 2005).
The neuronal cultures were maintained for 7-8 days prior to treatment. For treatment, the cells were rinsed once and then maintained in low K+ medium (serum-free BME medium; referred to as LK), or in the case of control cultures, in high K+ medium (serum-free BME medium supplemented with 20 mM KCl; referred to as HK). For treatments, the chemical compounds (dissolved in dimethylsulfoxide) were added directly to LK medium at the time of the switch from HK at concentrations of 1, 5, or 25 μM. Viability was assessed 24 hours by 4′,6′-diamidino-2-phenylindole hydrochloride (DAPI) staining (see below). Each compound was tested in duplicate (at each of the concentrations) and the experiment repeated at least 3 times.
The viability status of neuronal cultures treated with HK, LK, or LK medium supplemented with various compounds was evaluated by phase contrast microscopy and quantified by staining cell nuclei with DAPI as previously described (Yalcin et al., 2003; Morrison et al., 2006; Majzadeh et al., 2007)). Briefly, the cells were fixed in 4% paraformaldehyde for 20 min at 4° C. After washing in phosphate buffered saline, diamidino-2-phenylindole hydrochloride (DAPI; 1 μg/ml in phosphate buffered saline) was added for 15 min at room-temperature and viewed under ultraviolet light (260 nm). Cells with condensed or fragmented nuclei were scored as dead. Viability has been expressed as percent of control cultures, which were switched to HK medium). Statistical analysis was performed using an unpaired, two-tailed Student's T test, compared to mean neuronal survival of control cultures receiving LK treatment.
When cultured cerebellar granule neurons are switched from HK to LK medium about 50% of the cells underwent apoptosis within 24 h (D'Mello et al., 1993). The inventors utilized this widely used and recognized model to test a total of 20 different 1,4-benzoxazine derivatives for their ability to protect against LK-induced neuronal death. Each compound was tested at 3 different doses—1 μM, 5 μM and 25 μM and viability quantified by DAPI-staining. The highest does was included to test for possible toxicity effects of the compounds. Key results were confirmed using TUNEL staining, another reliable assay of apoptosis (FIG. 1). As shown in Table 1 and FIG. 1, the present invention identifies several compounds with significant neuroprotective effect. Two of the most protective compounds are HSB-13 and HSB-22, both with Ar=3′,5′-dibromo-4′-hydroxyphenyl (FIG. 1). […] Protection with this compound is lower than that observed with HSB-13 and HSB-22 at the two lower doses. […] To examine whether a higher level of protection could be observed at doses lower than 1 μM, the analyses of these compounds was extended to doses of 0.5, 0.25, and 0.1 μM.
When cultured cerebellar granule neurons are switched to LK medium, about 50% of the cells undergo apoptosis within 24 h. In this study, a total of 20 different 1,4-benzoxazine derivatives of the structure shown in FIG. 1 were tested for their ability to protect against LK-induced death of cerebellar granule neurons. Each compound was tested at 3 different doses —1 μM, 5 μM and 25 μM. […]

[2] = biological target: CDK1/Cyclin B1 (Homo sapiens, UniProt P06493); experiment: In vitro kinase activity; type: biochemical; settings: percentage of control assays without compound, mean of duplicate
Experimental: (§1) To better understand the mechanism of action of the compounds of the present invention, but in no way a limitation; the effects of HSB-13 and ASK-2a on 20 different kinases were examined in vitro. At 500 nM concentration, ASK-2a inhibited the kinase activities of GSK3α, GSK3β, p38α, p38β, JNK3, MLK3, and B-Raf substantially. […] As described above, ASK-2a protects cerebellar granule neurons against LK-induced death but is ineffective against HCA-induced toxicity of HT-22 cells. In contrast, HSB-13 is protective in both paradigms. […] Previous studies have established that CDK inhibitors can protect neurons against a number of different apoptotic stimuli.
(§2) The activity of each kinase was measured in vitro in the presence either 100 nM or 500 nM ASK-2a. Kinase activity is expressed as a percentage of that in control assays (without ASK-2a). The values are mean of assays performed in duplicate. Substantial inhibition of kinase activity (>20%) is in bold type.
(§3) Table 3: Effect of HSB-13 at 500 nM on 20 different kinases measured in vitro. Kinase activity is expressed as a percentage of that in control assays (without HSB-13). The values are mean of assays performed in duplicate. Substantial inhibition of kinase activity (>20%) is in bold type.

[3] = biological target: CDK1/Cylcin A1 (Homo sapiens, UniProt P06493); experiment: In vitro kinase activity; type: biochemical; settings: percentage of control assays without compound, mean of duplicate
Experimental: as §1, §2, §3

[4] = biological target: CDK4/Cyclin D1 (Homo sapiens, UniProt P11802); experiment: In vitro kinase activity; type: biochemical; settings: percentage of control assays without compound, mean of duplicate
Experimental: as §1, §2, §3

[5] = biological target: CDK5/p25 (Homo sapiens, UniProt Q00535); experiment: In vitro kinase activity; type: biochemical; settings: percentage of control assays without compound, mean of duplicate
Experimental: as §1, §2, §3

[6] = biological target: CDK6/Cyclin D3 (Homo sapiens, UniProt Q00534); experiment: In vitro kinase activity; type: biochemical; settings: percentage of control assays without compound, mean of duplicate
Experimental: as §1, §2, §3

[7] = biological target: GSK3α (Homo sapiens, UniProt P49840); experiment: In vitro kinase activity; type: biochemical; settings: percentage of control assays without compound, mean of duplicate
Experimental: as §1, §2, §3

[8] = biological target: LRRK2 (Homo sapiens, UniProt Q5S007); experiment: In vitro kinase activity; type: biochemical; settings: percentage of control assays without compound, mean of duplicate
Experimental: as §1, §2, §3

[9] = biological target: ROCK1 (Homo sapiens, UniProt Q13464); experiment: In vitro kinase activity; type: biochemical; settings: percentage of control assays without compound, mean of duplicate
Experimental: as §1, §2, §3

[10] = biological target: p38β (Homo sapiens, UniProt Q15759); experiment: In vitro kinase activity; type: biochemical; settings: percentage of control assays without compound, mean of duplicate
Experimental: as §1, §2, §3

[11] = Table 1, 5 μM in LK medium, 24 h, % of survival in control cultures in HK medium, LK alone 48%
[12] = Table 1, 25 μM in LK medium, 24 h, % of survival in control cultures in HK medium, LK alone 48%
[13] = 100 nM, listed as ASK2a, 0.1 µM
[14] = Table 4, 1 μM in LK medium, % of survival in HK control cultures, LK alone 48.16±8.44%
[15] = Table 4, 5 μM in LK medium, % of survival in HK control cultures, LK alone 48.16±8.44%
[16] = Table 4, 25 μM in LK medium, % of survival in HK control cultures, LK alone 48.16±8.44%

Sequence of LRRK2 (Q5S007 whole entry, species assumed): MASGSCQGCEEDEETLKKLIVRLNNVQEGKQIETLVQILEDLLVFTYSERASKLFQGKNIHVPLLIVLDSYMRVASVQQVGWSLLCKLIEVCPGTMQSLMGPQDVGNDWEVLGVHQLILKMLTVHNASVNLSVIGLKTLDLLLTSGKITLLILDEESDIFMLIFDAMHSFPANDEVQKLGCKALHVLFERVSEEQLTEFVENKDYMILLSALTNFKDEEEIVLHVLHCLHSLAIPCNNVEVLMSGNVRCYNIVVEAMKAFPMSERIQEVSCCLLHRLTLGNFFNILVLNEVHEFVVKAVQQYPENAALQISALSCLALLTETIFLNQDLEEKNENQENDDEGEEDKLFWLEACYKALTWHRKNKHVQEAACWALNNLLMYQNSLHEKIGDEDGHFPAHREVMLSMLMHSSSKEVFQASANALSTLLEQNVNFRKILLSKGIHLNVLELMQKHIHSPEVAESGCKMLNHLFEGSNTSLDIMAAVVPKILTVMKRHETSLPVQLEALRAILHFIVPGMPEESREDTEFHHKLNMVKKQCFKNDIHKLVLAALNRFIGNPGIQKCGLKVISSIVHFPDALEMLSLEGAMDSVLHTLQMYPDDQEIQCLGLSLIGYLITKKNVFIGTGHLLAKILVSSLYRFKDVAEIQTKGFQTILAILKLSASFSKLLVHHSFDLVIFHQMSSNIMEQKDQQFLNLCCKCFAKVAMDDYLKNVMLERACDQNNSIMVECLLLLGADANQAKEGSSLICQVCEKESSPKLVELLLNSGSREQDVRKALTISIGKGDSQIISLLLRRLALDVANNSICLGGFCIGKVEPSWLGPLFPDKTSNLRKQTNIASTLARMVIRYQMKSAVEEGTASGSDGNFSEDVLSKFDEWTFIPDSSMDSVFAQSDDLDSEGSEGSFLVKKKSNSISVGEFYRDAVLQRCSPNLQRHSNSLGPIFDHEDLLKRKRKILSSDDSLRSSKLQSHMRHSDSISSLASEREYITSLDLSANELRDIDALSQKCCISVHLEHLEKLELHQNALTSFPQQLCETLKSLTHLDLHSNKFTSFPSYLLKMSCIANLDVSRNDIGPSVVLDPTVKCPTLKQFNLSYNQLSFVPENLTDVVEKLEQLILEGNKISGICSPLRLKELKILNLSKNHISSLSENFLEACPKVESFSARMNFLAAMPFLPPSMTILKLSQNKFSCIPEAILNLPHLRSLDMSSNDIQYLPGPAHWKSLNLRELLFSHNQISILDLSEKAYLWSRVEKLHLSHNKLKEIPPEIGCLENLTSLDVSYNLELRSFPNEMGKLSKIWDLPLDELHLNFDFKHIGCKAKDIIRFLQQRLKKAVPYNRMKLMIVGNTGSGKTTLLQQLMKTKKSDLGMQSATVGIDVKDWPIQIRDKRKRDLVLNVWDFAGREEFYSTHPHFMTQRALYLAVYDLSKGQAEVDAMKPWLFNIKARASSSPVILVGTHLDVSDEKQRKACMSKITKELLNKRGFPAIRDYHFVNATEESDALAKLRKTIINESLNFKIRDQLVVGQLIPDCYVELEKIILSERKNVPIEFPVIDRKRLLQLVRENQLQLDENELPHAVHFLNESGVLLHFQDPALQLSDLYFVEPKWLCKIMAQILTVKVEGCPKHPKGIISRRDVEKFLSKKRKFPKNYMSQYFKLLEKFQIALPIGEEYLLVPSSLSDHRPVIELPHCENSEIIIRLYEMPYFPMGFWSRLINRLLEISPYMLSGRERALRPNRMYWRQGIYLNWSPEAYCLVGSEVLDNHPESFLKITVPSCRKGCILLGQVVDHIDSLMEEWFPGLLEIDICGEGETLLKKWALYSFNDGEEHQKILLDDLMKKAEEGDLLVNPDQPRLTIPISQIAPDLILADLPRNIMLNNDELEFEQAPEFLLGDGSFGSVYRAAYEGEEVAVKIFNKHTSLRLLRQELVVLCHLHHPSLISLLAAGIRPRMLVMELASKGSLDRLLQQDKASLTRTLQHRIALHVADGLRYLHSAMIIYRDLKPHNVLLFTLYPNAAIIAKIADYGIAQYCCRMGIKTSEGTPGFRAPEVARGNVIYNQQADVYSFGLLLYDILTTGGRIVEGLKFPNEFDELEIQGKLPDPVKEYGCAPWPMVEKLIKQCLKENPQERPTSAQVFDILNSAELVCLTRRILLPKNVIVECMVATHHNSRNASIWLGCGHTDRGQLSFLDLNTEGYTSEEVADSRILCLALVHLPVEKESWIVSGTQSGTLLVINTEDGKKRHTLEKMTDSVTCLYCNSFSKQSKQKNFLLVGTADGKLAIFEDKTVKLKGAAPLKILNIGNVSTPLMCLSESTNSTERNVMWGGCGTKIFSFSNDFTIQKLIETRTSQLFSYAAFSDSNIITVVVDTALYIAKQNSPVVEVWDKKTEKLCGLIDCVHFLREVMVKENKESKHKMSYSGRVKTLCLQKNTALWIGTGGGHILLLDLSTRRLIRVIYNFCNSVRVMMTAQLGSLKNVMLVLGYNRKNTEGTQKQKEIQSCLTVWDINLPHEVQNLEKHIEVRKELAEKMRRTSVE
Sequence of CDK1/Cylcin A1 (P06493 whole entry, species assumed): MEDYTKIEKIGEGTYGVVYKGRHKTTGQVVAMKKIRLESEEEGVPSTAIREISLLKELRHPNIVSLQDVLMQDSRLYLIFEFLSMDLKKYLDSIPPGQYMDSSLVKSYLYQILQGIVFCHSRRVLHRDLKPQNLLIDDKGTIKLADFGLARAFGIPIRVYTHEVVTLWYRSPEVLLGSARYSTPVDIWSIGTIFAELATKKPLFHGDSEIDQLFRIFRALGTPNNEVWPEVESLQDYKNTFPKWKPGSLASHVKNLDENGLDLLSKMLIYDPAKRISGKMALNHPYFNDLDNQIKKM
Sequence of CDK1/Cylcin A1 (P78396 whole entry partner, species assumed): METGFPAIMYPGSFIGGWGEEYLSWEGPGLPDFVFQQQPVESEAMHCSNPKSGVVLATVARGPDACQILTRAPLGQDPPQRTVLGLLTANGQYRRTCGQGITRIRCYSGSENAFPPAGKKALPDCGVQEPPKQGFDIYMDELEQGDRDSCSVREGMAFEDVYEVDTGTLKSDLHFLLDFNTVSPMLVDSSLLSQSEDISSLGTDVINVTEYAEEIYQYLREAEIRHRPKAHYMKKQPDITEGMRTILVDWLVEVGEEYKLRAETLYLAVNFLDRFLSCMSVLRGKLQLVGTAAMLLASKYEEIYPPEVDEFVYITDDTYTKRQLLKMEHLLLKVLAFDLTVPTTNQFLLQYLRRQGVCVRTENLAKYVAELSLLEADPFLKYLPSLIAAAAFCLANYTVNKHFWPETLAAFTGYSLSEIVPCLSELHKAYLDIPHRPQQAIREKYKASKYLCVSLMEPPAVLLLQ
Sequence of CDK1/Cyclin B1 (P06493 whole entry, species assumed): as the sequence (P06493 whole entry, species assumed) above
Sequence of CDK1/Cyclin B1 (P14635 whole entry partner, species assumed): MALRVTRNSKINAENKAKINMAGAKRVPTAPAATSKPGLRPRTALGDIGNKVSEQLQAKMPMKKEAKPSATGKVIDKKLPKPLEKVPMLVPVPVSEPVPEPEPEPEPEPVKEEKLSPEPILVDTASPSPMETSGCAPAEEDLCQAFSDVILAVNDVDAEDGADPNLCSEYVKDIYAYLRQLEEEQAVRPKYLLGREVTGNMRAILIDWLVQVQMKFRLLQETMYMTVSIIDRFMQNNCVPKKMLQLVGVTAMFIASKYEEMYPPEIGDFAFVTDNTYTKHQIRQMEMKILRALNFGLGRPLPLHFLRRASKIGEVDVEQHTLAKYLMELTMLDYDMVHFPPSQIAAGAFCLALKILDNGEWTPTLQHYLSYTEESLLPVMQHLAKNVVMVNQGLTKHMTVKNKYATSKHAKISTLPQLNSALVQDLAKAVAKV
Sequence of CDK4/Cyclin D1 (P11802 whole entry, species assumed): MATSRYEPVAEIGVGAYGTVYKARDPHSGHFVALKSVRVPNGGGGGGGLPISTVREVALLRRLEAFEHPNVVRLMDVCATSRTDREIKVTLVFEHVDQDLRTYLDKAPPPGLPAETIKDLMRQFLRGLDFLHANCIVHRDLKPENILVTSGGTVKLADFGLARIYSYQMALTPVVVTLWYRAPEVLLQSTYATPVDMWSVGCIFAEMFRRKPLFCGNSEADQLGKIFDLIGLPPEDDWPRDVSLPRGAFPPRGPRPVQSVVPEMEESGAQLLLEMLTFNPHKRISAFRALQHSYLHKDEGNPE
Sequence of CDK4/Cyclin D1 (P24385 whole entry partner, species assumed): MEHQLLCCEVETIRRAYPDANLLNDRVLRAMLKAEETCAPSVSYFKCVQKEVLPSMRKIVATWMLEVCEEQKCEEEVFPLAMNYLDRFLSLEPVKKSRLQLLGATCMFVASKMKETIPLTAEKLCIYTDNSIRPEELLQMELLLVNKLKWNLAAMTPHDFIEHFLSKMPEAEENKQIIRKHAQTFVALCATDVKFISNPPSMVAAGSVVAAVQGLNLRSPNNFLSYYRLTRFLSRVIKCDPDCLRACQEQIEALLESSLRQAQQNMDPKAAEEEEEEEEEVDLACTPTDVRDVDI
Sequence of p38β (Q15759 whole entry): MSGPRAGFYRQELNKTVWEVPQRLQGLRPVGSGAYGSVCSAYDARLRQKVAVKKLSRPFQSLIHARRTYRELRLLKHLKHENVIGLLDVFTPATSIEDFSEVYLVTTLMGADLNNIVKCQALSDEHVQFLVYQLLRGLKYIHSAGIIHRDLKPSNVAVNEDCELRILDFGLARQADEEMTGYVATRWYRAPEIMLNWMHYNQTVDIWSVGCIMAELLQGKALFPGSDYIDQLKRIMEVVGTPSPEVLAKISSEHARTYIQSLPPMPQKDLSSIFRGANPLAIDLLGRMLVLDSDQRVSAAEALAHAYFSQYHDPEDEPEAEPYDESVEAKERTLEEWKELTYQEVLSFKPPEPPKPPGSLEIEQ

Structure (SMILES) | protection against LK-induced neuronal death (FIG. 1) ([1]; 24 h) | % Survival [1, 11] [%] | % Survival [1, 12] [%] | neuroprotection against LK-induced neuronal death, in words [1] | % ACTIVITY ([2]; 100 nM) [%] | % ACTIVITY ([3]; 100 nM) [%] | % ACTIVITY ([4]; 100 nM) [%] | % ACTIVITY ([4]; 500 nM) [%] | % ACTIVITY ([5]; 100 nM) [%] | % ACTIVITY ([6]; 100 nM) [%] | % ACTIVITY ([6]; 500 nM) [%] | % ACTIVITY ([8]; 100 nM) [%] | % ACTIVITY ([8]; 500 nM) [%] | % ACTIVITY ([9]; 100 nM) [%] | % Survival [1, 14] | % Survival [1, 15] | % Survival [1, 16] | also measured
O=C1Nc2ccccc2OC1=Cc1cc(Br)c(O)c(Br)c1 [ASK-2a] | protective | 80.84 ± 9.31 | 95.12 ± 3.28 | much higher neuroprotection than ASK2; also recorded: high level of neuroprotection; also recorded: effective in all the three concentrations | 91 | 101 | 93 | 97 | 100 | 104 | 99 | 96 | 94 | 96 | – | – | – | % Survival ([1]; Table 1, 1 μM in LK medium, 24 h, % of survival in control cultures in HK medium, LK alone 48%): 74.01 ± 6.93%; % ACTIVITY ([2]; 500 nM): 98%; % ACTIVITY ([3]; 500 nM): 88%; % ACTIVITY ([5]; 500 nM): 96%; % ACTIVITY ([7]; 100 nM, 0.1 µM): 71%; % ACTIVITY [7, 13]: inhibited efficiently; % ACTIVITY ([9]; 500 nM): 98%; % ACTIVITY ([10]; 100 nM, 0.1 µM): 33%; % ACTIVITY [10, 13]: inhibited efficiently
Nc1ccc2c(c1)NC(=O)/C(=C/c1cc(Br)c(O)c(Br)c1)O2 [HSB-13, (Z)-6-amino-2-(3,′5′-dibromo-4′-hydrozybenzylidene)-2H-benzo[b][1,4]oxazin-3(4H)-one] | protective | 100.2 ± 2.25 | 95.1 ± 5.06 | highest neuroprotection; also recorded: effective in all the three concentrations | 90 | 95 | 103 | 88 | 84 | 99 | 89 | 97 | 88 | 91 | 83.1 ± 4.53 % | 100.8% and 100.8 ± 0.07 % | 99.5% and 99.5 ± 1.56 % | % ACTIVITY ([7]; 500 nM): 23%; % ACTIVITY ([10]; 500 nM): 10%
O=C1Nc2cc(Cl)ccc2O/C1=C\c1cc(Br)c(O)c(Br)c1 [HSB-22] | protective | 87.54 ± 8.83 | 91.24 ± 9.03 | effective in all the three concentrations | – | – | – | – | – | – | – | – | – | – | 92% and 91.9 ± 1.98 % | 97% and 96.7 ± 2.96 % | 90.6% and 90.6 ± 0.84 % | –
